ChEMBL document CHEMBL1201862, “PubChem BioAssay data set” (2004)
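Exposure lasted 48 hours, with cells grown in 96-well plates and compounds tested at five concentrations. GI50: concentration for 50% inhibition of growth.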 Activity calls are given as the source filed them. Cut-off read from the data, not from the text of the source: active = GI50 up to about 1.1 µM and inactive = higher.

Legend:
Test in all cases: NCI tumour cell line growth inhibition, 48 h
NCI-H226 = system: NCI-H226
U-251 = system: U-251
M14 = system: M14
K562 = system: K562
RPMI-8226 = system: RPMI-8226
OVCAR-8 = system: OVCAR-8
SN12C = system: SN12C
MDA-MB-231 = system: MDA-MB-231
SK-MEL-28 = system: SK-MEL-28
MOLT-4 = system: MOLT-4
CCRF-CEM = system: CCRF-CEM
HOP-62 = system: HOP-62
TK-10 = system: TK-10
SK-MEL-2 = system: SK-MEL-2
IGROV-1 = system: IGROV-1
HL-60 = system: HL-60
HCT-15 = system: HCT-15
KM12 = system: KM12
MDA-MB-435 = system: MDA-MB-435
UO-31 = system: UO-31

| SMILES | GI50 (NCI-H226) | GI50 (U-251) | GI50 (M14) | GI50 (K562) | GI50 (RPMI-8226) | GI50 (OVCAR-8) | GI50 (SN12C) | GI50 (MDA-MB-231) | GI50 (SK-MEL-28) | GI50 (MOLT-4) | GI50 (CCRF-CEM) | GI50 (HOP-62) | GI50 (TK-10) | GI50 (SK-MEL-2) | GI50 (IGROV-1) | GI50 (HL-60) | GI50 (HCT-15) [µM] | GI50 (KM12) | GI50 (MDA-MB-435) | GI50 (UO-31) |
| --- | --- | --- | --- | --- | --- | --- | --- | --- | --- | --- | --- | --- | --- | --- | --- | --- | --- | --- | --- | --- |
| CN(C)/C=N/S(=O)(=O)c1nn2c(C=O)c(-c3ccc([N+](=O)[O-])cc3)nc2s1 | 19.6 µM (inactive) | 8.69 µM (inactive) | 2.79 µM (inactive) | 2.43 µM (inactive) | 2.39 µM (inactive) | 3.67 µM (inactive) | 5.42 µM (inactive) | 12.4 µM (inactive) | 4.23 µM (inactive) | 2.35 µM (inactive) | 0.834 µM (active) | 26.1 µM (inactive) | 5.73 µM (inactive) | 10.4 µM (inactive) | 3.15 µM (inactive) | 1.38 µM (inactive) | 2.94 | 9.12 µM (inactive) | 6.3 µM (inactive) | 2.61 µM (inactive) |
| CC1(C)Cc2nc3c(cc2C(=O)C1/C=N/C(C#N)=C(\N)C#N)C(=O)C(/C=N/C(C#N)=C(\N)C#N)C(C)(C)C3 (centres undefined) | 2.84 µM (inactive) | 2.04 µM (inactive) | 1.67 µM (inactive) | 3.05 µM (inactive) | 2.74 µM (inactive) | 2.36 µM (inactive) | 2.06 µM (inactive) | 2.82 µM (inactive) | 1.98 µM (inactive) | 2.37 µM (inactive) | 2.39 µM (inactive) | 2.33 µM (inactive) | 4.8 µM (inactive) | 2.2 µM (inactive) | 1.52 µM (inactive) | 2.04 µM (inactive) | 2.36 | 1.77 µM (inactive) | 2.08 µM (inactive) | 1.84 µM (inactive) |
| Cc1cc(C)c2c(=O)n(CC(O)CN3CCN(c4ncccn4)CC3)sc2n1 (centres undefined) | 96.8 µM (inactive) | 17.8 µM (inactive) | 15.7 µM (inactive) | 22.3 µM (inactive) | 4.71 µM (inactive) | 19.2 µM (inactive) | 17.8 µM (inactive) | 17.5 µM (inactive) | 17 µM (inactive) | 4 µM (inactive) | 5.79 µM (inactive) | 20.3 µM (inactive) | 18.2 µM (inactive) | 18.7 µM (inactive) | 29.4 µM (inactive) | 16.6 µM (inactive) | 18.8 | 20.8 µM (inactive) | 16.6 µM (inactive) | 16.4 µM (inactive) |
| O=C1NI(C#Cc2ccccc2)c2ccccc21 | > 100 µM (inactive) | 60.3 µM (inactive) | > 100 µM (inactive) | > 100 µM (inactive) | 43.7 µM (inactive) | > 100 µM (inactive) | > 100 µM (inactive) | > 100 µM (inactive) | > 100 µM (inactive) | 65.3 µM (inactive) | 40.6 µM (inactive) | > 100 µM (inactive) | > 100 µM (inactive) | > 100 µM (inactive) | > 100 µM (inactive) | > 100 µM (inactive) | > 100 | 95.1 µM (inactive) | > 100 µM (inactive) | > 100 µM (inactive) |
| c1ccc2c(c1)N[C@@H]1c3[nH]c4ccccc4c3CC[C@H]21 | 12.5 µM (inactive) | 14.2 µM (inactive) | 13.5 µM (inactive) | 14 µM (inactive) | 14.7 µM (inactive) | 12.9 µM (inactive) | 15.2 µM (inactive) | 15.5 µM (inactive) | 18.5 µM (inactive) | 13.9 µM (inactive) | 15 µM (inactive) | 13.3 µM (inactive) | 37 µM (inactive) | 13.9 µM (inactive) | 3.95 µM (inactive) | 16.1 µM (inactive) | 23 | 14 µM (inactive) | 17.3 µM (inactive) | 17.7 µM (inactive) |
| N=C(N)NS(=O)(=O)c1ccc(NC(=O)c2cccc3c(NNc4ccc(S(=O)(=O)N=C(N)N)cc4)c4ccccc4nc23)cc1 | 91.8 µM (inactive) | 28.4 µM (inactive) | > 100 µM (inactive) | 28.1 µM (inactive) | 37.9 µM (inactive) | 53.5 µM (inactive) | > 100 µM (inactive) | 46.6 µM (inactive) | 37.2 µM (inactive) | 30.8 µM (inactive) | 19.3 µM (inactive) | > 100 µM (inactive) | > 100 µM (inactive) | 16.9 µM (inactive) | 51.5 µM (inactive) | 35.5 µM (inactive) | 37.8 | > 100 µM (inactive) | 42.3 µM (inactive) | > 100 µM (inactive) |
| COc1cccc(-c2cc(O)c3cc(Cl)cnc3n2)c1 | 0.08 µM (active) | 0.0693 µM (active) | 0.0443 µM (active) | 0.0419 µM (active) | 0.0378 µM (active) | 0.158 µM (active) | 0.143 µM (active) | 0.338 µM (active) | 0.0918 µM (active) | 0.0991 µM (active) | 0.0484 µM (active) | 0.0809 µM (active) | 12.9 µM (inactive) | 0.757 µM (active) | 0.228 µM (active) | 0.0211 µM (active) | 0.114 | 0.0887 µM (active) | 0.0155 µM (active) | 0.313 µM (active) |
| O=C1CSC(c2ccccc2)N1c1nc2cc3sc(N4C(=O)CSC4c4ccccc4)nc3cc2s1 (centres undefined) | 15.8 µM (inactive) | 38.2 µM (inactive) | > 87.3 µM (inactive) | 47.4 µM (inactive) | 71.1 µM (inactive) | 70.8 µM (inactive) | 32.4 µM (inactive) | 68.7 µM (inactive) | > 100 µM (inactive) | 5.86 µM (inactive) | 4.35 µM (inactive) | > 100 µM (inactive) | 53.2 µM (inactive) | 63.7 µM (inactive) | 23.4 µM (inactive) | > 63.7 µM (inactive) | 10.2 | 17.5 µM (inactive) | 55.6 µM (inactive) | 40.6 µM (inactive) |
| CCCCCCCCCCCCC/C=C/[C@@H](O)[C@H](COC1OC(CO)C(OC2OC(CO)C(O)C(OC3(C(=O)O)CC(O)C(NC(C)=O)C(C(O)C(O)CO)O3)C2O)C(O)C1O)N=[N+]=[N-] (some centres undefined) | 20.8 µM (inactive) | 19.9 µM (inactive) | 18.7 µM (inactive) | 27.4 µM (inactive) | 95.3 µM (inactive) | 21.8 µM (inactive) | > 100 µM (inactive) | > 100 µM (inactive) | 30.3 µM (inactive) | 21.7 µM (inactive) | 22.5 µM (inactive) | 20.5 µM (inactive) | > 100 µM (inactive) | 17.5 µM (inactive) | 32.9 µM (inactive) | 37.5 µM (inactive) | 72.9 | 18.5 µM (inactive) | > 100 µM (inactive) | 23 µM (inactive) |
| Clc1c2ncccc2cc2nn[nH]c12 | 21.3 µM (inactive) | > 100 µM (inactive) | > 100 µM (inactive) | > 100 µM (inactive) | > 100 µM (inactive) | > 100 µM (inactive) | > 100 µM (inactive) | > 100 µM (inactive) | > 100 µM (inactive) | 15.8 µM (inactive) | 17.3 µM (inactive) | > 100 µM (inactive) | > 100 µM (inactive) | > 100 µM (inactive) | 33 µM (inactive) | 14.5 µM (inactive) | > 100 | > 100 µM (inactive) | > 100 µM (inactive) | 82.6 µM (inactive) |
| O=C(O)CCc1nc2c(n1Cc1ccccc1)C(=O)c1ccccc1C2=O | > 100 µM (inactive) | 56 µM (inactive) | 21.4 µM (inactive) | 57.3 µM (inactive) | 39 µM (inactive) | 49.4 µM (inactive) | 44.5 µM (inactive) | 33.5 µM (inactive) | > 100 µM (inactive) | 68.9 µM (inactive) | 76.7 µM (inactive) | > 100 µM (inactive) | 34.1 µM (inactive) | 26 µM (inactive) | 70.3 µM (inactive) | 64 µM (inactive) | 48.8 | 52.4 µM (inactive) | 19.2 µM (inactive) | 30.8 µM (inactive) |
| Clc1ccc2ns[s+]c2c1 | > 89.7 µM (inactive) | 18.3 µM (inactive) | 0.222 µM (active) | 0.0611 µM (active) | 1.81 µM (inactive) | 20.4 µM (inactive) | 19.4 µM (inactive) | 25.3 µM (inactive) | 17.7 µM (inactive) | 1.71 µM (inactive) | 1.27 µM (inactive) | 4.32 µM (inactive) | > 25.6 µM (inactive) | 9.35 µM (inactive) | 40.3 µM (inactive) | 1.09 µM (active) | 0.33 | 3.66 µM (inactive) | 0.334 µM (active) | 6.44 µM (inactive) |
| C[C@@]12C(=O)OC(=O)[C@]1(C)[C@H]1CC[C@@H]2O1 [CANTHARIDIN] | 1.06 µM (active) | 1.41 µM (inactive) | 1.7 µM (inactive) | 2.3 µM (inactive) | 2.08 µM (inactive) | 5.98 µM (inactive) | 2.01 µM (inactive) | 1.33 µM (inactive) | 3.48 µM (inactive) | 9.79 µM (inactive) | 1.19 µM (inactive) | 2.44 µM (inactive) | 0.313 µM (active) | 1.45 µM (inactive) | 2.16 µM (inactive) | 1.63 µM (inactive) | 4.06 | 5.42 µM (inactive) | 1.89 µM (inactive) | 2.64 µM (inactive) |
| Cc1cccc(C(C)(C)C)c1NC(=O)C(C#N)C1=C(Cl)C(=O)c2ccccc2C1=O (centres undefined) | 9.66 µM (inactive) | 16.9 µM (inactive) | 18 µM (inactive) | 3.05 µM (inactive) | 8.83 µM (inactive) | 18.2 µM (inactive) | 17.3 µM (inactive) | 14 µM (inactive) | 16.9 µM (inactive) | 2.74 µM (inactive) | 0.843 µM (active) | 17.7 µM (inactive) | 19.1 µM (inactive) | 16.1 µM (inactive) | 18.4 µM (inactive) | 2.03 µM (inactive) | – | 16.3 µM (inactive) | 16.7 µM (inactive) | 14.7 µM (inactive) |
